Key:
Test in all cases: KINOMEscan
Assay type in all cases: binding
[1] = target: PAK3 (Homo sapiens (Human), UniProt O75914); settings: PAK3, 10000 nM; read-out: Percent Control
[2] = target: CAMKK2 (Homo sapiens (Human), UniProt Q96RR4); settings: CAMKK2, 10000 nM; read-out: Percent Control
[3] = target: TRPM6 (Homo sapiens (Human), UniProt Q9BX84); settings: TRPM6, 10000 nM; read-out: Percent Control
[4] = target: EPHA8 (Homo sapiens (Human), UniProt P29322); settings: EPHA8, 10000 nM; read-out: Percent Control
[5] = target: NDR2 (Homo sapiens (Human), UniProt Q9Y2H1); settings: NDR2, 10000 nM; read-out: Percent Control
[6] = target: TRKC (Homo sapiens (Human), UniProt Q16288); settings: 10000 nM, read-out: Percent Control
[7] = target: WEE2 (Homo sapiens (Human), UniProt P0C1S8); settings: WEE2, 10000 nM; read-out: Percent Control
[8] = target: ERBB2 (Homo sapiens (Human), UniProt P04626); settings: ERBB2, 10000 nM; read-out: Percent Control
[9] = target: MEK5 (Homo sapiens (Human), UniProt Q13163); settings: MEK5, 10000 nM; read-out: Percent Control
[10] = target: LRRK2 (Homo sapiens (Human), UniProt Q5S007); settings: LRRK2, 10000 nM; read-out: Percent Control
[11] = target: MEK2 (Homo sapiens (Human), UniProt P36507); settings: MEK2, 10000 nM; read-out: Percent Control
[12] = target: NEK2 (Homo sapiens (Human), UniProt P51955); settings: NEK2, 10000 nM; read-out: Percent Control
[13] = target: PCTK3 (Homo sapiens (Human), UniProt Q07002); settings: PCTK3, 10000 nM; read-out: Percent Control
[14] = target: JAK1(JH2domain-pseudokinase) (Homo sapiens (Human), UniProt P23458); settings: 10000 nM, read-out: Percent Control
[15] = target: RSK3(Kin.Dom.1-N-terminal) (Homo sapiens (Human), UniProt Q15349); settings: 10000 nM, read-out: Percent Control
[16] = target: KIT-autoinhibited (Homo sapiens (Human), UniProt P10721); settings: 10000 nM, read-out: Percent Control
[17] = target: CDK11 (Homo sapiens (Human), UniProt Q9BWU1); settings: CDK11, 10000 nM; read-out: Percent Control
[18] = target: RIPK1 (Homo sapiens (Human), UniProt Q13546); settings: RIPK1, 10000 nM; read-out: Percent Control
[19] = target: GSK3A (Homo sapiens (Human), UniProt P49840); settings: 10000 nM, read-out: Percent Control
[20] = target: EGFR(G719C) (Homo sapiens (Human), UniProt P00533, G719C); settings: 10000 nM, read-out: Percent Control
[21] = target: BMPR2 (Homo sapiens (Human), UniProt Q13873); settings: BMPR2, 10000 nM; read-out: Percent Control
[22] = target: CAMK1G (Homo sapiens (Human), UniProt Q96NX5); settings: 10000 nM, read-out: Percent Control
[23] = target: JNK2 (Homo sapiens (Human), UniProt P45984); settings: JNK2, 10000 nM; read-out: Percent Control
[24] = target: EPHA7 (Homo sapiens (Human), UniProt Q15375); settings: EPHA7, 10000 nM; read-out: Percent Control
[25] = target: DRAK2 (Homo sapiens (Human), UniProt O94768); settings: DRAK2, 10000 nM; read-out: Percent Control
[26] = target: CAMK2D (Homo sapiens (Human), UniProt Q13557); settings: 10000 nM, read-out: Percent Control
[27] = target: DAPK2 (Homo sapiens (Human), UniProt Q9UIK4); settings: DAPK2, 10000 nM; read-out: Percent Control
[28] = target: CSNK1G3 (Homo sapiens (Human), UniProt Q9Y6M4); settings: CSNK1G3, 10000 nM; read-out: Percent Control
[29] = target: HUNK (Homo sapiens (Human), UniProt P57058); settings: 10000 nM, read-out: Percent Control
[30] = target: OSR1 (Homo sapiens (Human), UniProt O95747); settings: OSR1, 10000 nM; read-out: Percent Control
[31] = target: LTK (Homo sapiens (Human), UniProt P29376); settings: 10000 nM, read-out: Percent Control
[32] = target: RSK4(Kin.Dom.2-C-terminal) (Homo sapiens (Human), UniProt Q9UK32); settings: 10000 nM, read-out: Percent Control
[33] = target: ABL1(F317I)-nonphosphorylated (Homo sapiens (Human), UniProt P00519, F317I); settings: 10000 nM, read-out: Percent Control
[34] = target: DAPK1 (Homo sapiens (Human), UniProt P53355); settings: DAPK1, 10000 nM; read-out: Percent Control

Sequence of BMPR2 (Q13873 27-1038): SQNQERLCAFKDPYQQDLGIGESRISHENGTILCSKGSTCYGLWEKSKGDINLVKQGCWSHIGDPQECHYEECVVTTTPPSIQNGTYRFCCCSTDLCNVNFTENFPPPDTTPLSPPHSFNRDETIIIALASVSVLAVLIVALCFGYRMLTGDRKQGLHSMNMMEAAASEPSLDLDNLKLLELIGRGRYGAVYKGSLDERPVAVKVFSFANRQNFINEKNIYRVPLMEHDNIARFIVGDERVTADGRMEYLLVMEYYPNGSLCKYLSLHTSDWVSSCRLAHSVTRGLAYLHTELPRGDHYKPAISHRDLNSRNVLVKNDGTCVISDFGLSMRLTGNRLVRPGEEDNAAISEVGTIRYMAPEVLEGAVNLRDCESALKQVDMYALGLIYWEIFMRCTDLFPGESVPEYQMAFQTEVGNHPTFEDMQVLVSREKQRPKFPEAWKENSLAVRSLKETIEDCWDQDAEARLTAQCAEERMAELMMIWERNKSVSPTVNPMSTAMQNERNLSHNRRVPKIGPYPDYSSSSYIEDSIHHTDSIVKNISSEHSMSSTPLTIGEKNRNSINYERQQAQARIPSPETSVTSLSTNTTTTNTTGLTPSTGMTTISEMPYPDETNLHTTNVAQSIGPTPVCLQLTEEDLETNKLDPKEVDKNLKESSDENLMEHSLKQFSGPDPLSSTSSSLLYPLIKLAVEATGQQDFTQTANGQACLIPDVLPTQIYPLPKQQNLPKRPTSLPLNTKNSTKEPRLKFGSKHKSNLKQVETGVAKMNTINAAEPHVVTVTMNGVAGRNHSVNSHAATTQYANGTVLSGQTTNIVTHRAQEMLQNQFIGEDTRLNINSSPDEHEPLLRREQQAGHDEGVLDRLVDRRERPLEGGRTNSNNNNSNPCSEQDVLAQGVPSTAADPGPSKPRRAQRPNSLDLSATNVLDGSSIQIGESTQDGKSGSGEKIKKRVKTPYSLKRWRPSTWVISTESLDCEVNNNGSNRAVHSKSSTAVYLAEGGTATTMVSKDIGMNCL
Sequence of NEK2 (P51955 whole entry): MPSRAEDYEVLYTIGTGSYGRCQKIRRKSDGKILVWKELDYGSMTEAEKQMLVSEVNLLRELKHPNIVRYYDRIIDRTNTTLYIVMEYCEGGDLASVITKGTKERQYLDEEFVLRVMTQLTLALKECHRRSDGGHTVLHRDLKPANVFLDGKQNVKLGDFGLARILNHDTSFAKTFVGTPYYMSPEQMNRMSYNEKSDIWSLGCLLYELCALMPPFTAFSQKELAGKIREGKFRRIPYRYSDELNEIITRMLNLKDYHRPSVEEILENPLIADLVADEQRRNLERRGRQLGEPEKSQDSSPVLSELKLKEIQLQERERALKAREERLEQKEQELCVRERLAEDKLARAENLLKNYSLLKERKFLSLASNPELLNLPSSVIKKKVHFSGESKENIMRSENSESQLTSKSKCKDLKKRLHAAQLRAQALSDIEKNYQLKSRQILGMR
Sequence of CSNK1G3 (Q9Y6M4 whole entry): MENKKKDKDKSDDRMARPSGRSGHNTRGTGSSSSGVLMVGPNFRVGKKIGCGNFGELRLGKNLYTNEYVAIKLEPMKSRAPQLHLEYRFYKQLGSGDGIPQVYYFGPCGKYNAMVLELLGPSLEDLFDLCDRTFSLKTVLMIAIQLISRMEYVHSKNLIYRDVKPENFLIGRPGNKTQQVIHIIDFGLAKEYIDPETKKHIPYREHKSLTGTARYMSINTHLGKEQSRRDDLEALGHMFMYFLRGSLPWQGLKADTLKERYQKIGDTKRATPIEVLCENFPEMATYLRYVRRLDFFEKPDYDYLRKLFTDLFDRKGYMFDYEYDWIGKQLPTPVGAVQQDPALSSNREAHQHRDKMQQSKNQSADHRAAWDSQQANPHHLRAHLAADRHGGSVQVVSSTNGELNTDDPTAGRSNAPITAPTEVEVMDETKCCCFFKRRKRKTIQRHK
Sequence of EGFR(G719C) (P00533 25-1210 G719C): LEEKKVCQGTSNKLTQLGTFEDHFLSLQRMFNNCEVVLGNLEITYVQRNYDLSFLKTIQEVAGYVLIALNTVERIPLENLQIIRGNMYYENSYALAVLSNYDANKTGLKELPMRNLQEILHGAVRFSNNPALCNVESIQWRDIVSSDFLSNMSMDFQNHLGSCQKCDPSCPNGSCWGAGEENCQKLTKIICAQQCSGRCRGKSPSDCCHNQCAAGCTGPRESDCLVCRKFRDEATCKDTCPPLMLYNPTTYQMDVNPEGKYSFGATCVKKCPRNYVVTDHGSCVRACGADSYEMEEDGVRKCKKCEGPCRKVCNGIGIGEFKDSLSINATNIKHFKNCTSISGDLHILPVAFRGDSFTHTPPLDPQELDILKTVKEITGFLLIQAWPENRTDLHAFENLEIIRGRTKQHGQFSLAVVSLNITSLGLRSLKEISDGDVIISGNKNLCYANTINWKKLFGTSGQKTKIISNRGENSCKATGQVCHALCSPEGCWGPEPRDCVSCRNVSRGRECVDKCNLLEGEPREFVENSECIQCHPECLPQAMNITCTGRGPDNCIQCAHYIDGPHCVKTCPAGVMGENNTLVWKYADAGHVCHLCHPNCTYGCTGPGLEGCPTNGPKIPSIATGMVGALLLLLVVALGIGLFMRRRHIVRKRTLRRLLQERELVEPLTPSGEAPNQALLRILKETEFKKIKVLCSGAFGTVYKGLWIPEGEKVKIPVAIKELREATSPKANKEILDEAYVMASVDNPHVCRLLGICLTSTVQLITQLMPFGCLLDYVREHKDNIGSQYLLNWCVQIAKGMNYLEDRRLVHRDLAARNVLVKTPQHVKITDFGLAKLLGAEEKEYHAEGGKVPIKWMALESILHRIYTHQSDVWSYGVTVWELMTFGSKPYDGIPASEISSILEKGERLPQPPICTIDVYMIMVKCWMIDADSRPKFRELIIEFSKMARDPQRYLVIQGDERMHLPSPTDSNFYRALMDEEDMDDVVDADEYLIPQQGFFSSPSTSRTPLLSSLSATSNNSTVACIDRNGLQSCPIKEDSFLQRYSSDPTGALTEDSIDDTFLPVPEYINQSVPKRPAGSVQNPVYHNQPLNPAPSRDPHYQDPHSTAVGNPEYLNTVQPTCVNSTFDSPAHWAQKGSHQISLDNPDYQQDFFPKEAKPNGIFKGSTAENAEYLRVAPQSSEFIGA
Sequence of JNK2 (P45984 whole entry): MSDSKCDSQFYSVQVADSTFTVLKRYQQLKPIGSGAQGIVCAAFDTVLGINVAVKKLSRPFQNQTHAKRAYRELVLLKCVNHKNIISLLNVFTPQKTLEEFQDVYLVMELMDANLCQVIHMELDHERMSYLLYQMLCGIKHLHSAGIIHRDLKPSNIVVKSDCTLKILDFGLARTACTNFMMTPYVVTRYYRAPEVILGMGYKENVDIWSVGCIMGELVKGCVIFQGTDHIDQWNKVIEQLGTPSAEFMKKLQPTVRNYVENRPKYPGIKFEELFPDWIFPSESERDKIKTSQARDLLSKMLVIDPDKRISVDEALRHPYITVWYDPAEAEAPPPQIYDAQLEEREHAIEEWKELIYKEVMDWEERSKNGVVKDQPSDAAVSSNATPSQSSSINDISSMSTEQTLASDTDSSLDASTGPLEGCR
Sequence of CAMK2D (Q13557 whole entry): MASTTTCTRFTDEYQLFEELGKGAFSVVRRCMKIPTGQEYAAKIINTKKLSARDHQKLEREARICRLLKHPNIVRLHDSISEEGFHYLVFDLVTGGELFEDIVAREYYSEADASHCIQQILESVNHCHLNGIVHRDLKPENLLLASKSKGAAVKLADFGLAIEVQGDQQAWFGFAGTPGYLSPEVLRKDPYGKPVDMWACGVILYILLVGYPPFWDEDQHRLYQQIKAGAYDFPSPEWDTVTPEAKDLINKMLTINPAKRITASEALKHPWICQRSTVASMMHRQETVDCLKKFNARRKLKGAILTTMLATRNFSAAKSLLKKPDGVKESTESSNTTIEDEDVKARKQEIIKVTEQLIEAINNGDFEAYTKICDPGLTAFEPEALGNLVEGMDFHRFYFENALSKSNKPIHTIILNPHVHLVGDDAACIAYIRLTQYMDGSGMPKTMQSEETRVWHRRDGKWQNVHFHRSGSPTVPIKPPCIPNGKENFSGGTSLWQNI
Sequence of JAK1(JH2domain-pseudokinase) (P23458 583-855): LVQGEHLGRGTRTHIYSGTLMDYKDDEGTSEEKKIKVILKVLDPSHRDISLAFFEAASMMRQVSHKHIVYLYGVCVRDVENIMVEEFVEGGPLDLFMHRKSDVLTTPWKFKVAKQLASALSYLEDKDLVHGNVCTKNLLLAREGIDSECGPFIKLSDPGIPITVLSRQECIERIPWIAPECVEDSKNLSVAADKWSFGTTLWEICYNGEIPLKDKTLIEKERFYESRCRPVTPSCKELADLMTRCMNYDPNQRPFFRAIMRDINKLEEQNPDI
Sequence of DRAK2 (O94768 whole entry): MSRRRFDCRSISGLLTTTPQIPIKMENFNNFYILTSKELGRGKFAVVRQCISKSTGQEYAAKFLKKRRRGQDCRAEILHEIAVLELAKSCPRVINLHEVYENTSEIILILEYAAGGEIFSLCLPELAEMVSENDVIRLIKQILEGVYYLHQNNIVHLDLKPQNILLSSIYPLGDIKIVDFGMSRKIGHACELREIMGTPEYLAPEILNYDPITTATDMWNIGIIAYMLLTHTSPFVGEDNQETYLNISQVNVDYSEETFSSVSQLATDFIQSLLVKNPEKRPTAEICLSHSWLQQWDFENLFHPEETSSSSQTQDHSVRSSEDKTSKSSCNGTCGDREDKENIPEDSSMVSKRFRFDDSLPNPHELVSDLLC
Sequence of RSK3(Kin.Dom.1-N-terminal) (Q15349 59-318): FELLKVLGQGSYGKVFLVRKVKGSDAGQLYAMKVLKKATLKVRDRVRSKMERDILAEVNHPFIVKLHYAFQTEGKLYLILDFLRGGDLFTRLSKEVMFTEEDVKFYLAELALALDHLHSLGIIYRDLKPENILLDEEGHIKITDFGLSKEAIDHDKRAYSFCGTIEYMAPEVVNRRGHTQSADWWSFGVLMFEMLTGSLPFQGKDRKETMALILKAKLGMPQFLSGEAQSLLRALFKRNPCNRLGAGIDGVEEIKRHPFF

SMILES	remaining binding at 10 µM [1] [%]	remaining binding at 10 µM [2] [%]	remaining binding at 10 µM [3] [%]	remaining binding at 10 µM [4] [%]	remaining binding at 10 µM [5] [%]	remaining binding at 10 µM [6] [%]	remaining binding at 10 µM [7] [%]	remaining binding at 10 µM [8] [%]	remaining binding at 10 µM [9] [%]	remaining binding at 10 µM [10] [%]	remaining binding at 10 µM [11] [%]	remaining binding at 10 µM [12] [%]	remaining binding at 10 µM [13] [%]	remaining binding at 10 µM [14] [%]	remaining binding at 10 µM [15] [%]	remaining binding at 10 µM [16] [%]	remaining binding at 10 µM [17] [%]	remaining binding at 10 µM [18] [%]	remaining binding at 10 µM [19] [%]	remaining binding at 10 µM [20] [%]	also measured
COc1cc(N2CCC(N3CCN(C)CC3)CC2)ccc1Nc1ncc2c(n1)N(C)c1sc(C)nc1C(=O)N2 [Compound 3, 6-((2-methoxy-4-(4-(4-methylpiperazin-1-yl)piperidin-1-yl)phenyl)amino)-2,4-dimethyl-4,9-dihydro-10H-pyrimido[5,4-b]thiazolo[5,4-e][1,4]diazepin-10-one]	78	80	100	64	86	100	65	98	22	98	100	84	90	85	83	100	71	100	82	34	remaining binding at 10 µM [21]: 100%; remaining binding at 10 µM [22]: 74%; remaining binding at 10 µM [23]: 100%; remaining binding at 10 µM [24]: 71%; remaining binding at 10 µM [25]: 100%; remaining binding at 10 µM [26]: 82%; remaining binding at 10 µM [27]: 60%; remaining binding at 10 µM [28]: 87%; remaining binding at 10 µM [29]: 95%; remaining binding at 10 µM [30]: 100%; remaining binding at 10 µM [31]: 81%; remaining binding at 10 µM [32]: 69%; remaining binding at 10 µM [33]: 3.8%; remaining binding at 10 µM [34]: 72%
COc1cc(N2CCC(N3CCN(C)CC3)CC2)ccc1Nc1ncc2c(n1)N(C)c1sc(C)nc1C(=O)N2C [Compound 5, 6-((2-methoxy-4-(4-(4-methylpiperazin-1-yl)piperidin-1-yl)phenyl)amino)-2,4,9-trimethyl-4,9-dihydro-10H-pyrimido[5,4-b]thiazolo[5,4-e][1,4]diazepin-10-one]	92	88	92	100	64	100	100	100	100	32	99	100	98	89	100	100	90	96	100	100	remaining binding at 10 µM [21]: 100%; remaining binding at 10 µM [22]: 95%; remaining binding at 10 µM [23]: 98%; remaining binding at 10 µM [24]: 97%; remaining binding at 10 µM [25]: 100%; remaining binding at 10 µM [26]: 92%; remaining binding at 10 µM [27]: 83%; remaining binding at 10 µM [28]: 100%; remaining binding at 10 µM [29]: 97%; remaining binding at 10 µM [30]: 100%; remaining binding at 10 µM [31]: 97%; remaining binding at 10 µM [32]: 67%; remaining binding at 10 µM [33]: 48%; remaining binding at 10 µM [34]: 84%

From US12365696B2, “Small-molecule focal adhesion kinase (FAK) inhibitors” (DANA-FARBER CANCER INSTITUTE, INC., priority 2019, dated 2025)
